The subject of data set [1] is S. aureus ATCC 13709. Put plainly: Antibacterial susceptibility (MIC), NCCLS broth microdilution. Format: cell-based. The following applies: for Antibacterial activity (in words, summary of Table 1): summary over the strains of Table 1. As for the experimental part: (§1) Susceptibility of S. aureus strains to the known antibiotics and synthesized compounds was determined by following the guidelines set by NCCLS (M26-A). Compounds were diluted two-fold serially in DMSO and transferred to cation-adjusted Mueller Hinton broth (CAMHB; Becton Dickinson). 50 μL of compounds diluted in CAMHB was mixed with 100 μL of bacteria diluted in CAMHB in 96-well microtiter plates. The final concentration of micro-organisms in the assay was 5×10^5 c.f.u. per mL and the final concentration of DMSO in the assay was 1.25%. Assays were set up in duplicate and incubated at 37° C. for 18 h. The lowest concentration of compound that inhibited visible growth was reported as the minimum inhibitory concentration (MIC).
For orientation: Dilution methods test growth across graded concentrations, often in twofold steps.

Data set [2] deals with S. aureus ATCC 43300 (Fluoroquinolone sensitive MRSA). The data set is described as above. Format: cell-based. As for the experimental part: as §1
In data set [3] the test system is S. aureus BK85 (Fluoroquinolone resistant MRSA). Described as above. Format: cell-based. As for the experimental part:
as §1

For the next data set, the system named is S. aureus RN4220. Described as above. The following applies: CAMHB, 37° C., 18 h. Format: cell-based. As for the experimental part:
as §1

Data set [4] relates to S. aureus ATCC 13709 Novobiocin and Rifampicin resistant variant. As to the kind of experiment: microbe, parasite or virus in culture. Format: cell-based. The following applies: for Minimum inhibitory concentration, S. aureus ATCC 13709 variant: Novobiocin and Rifampicin resistant variant. As for the experimental part: as §1
Data set [5] has as its system S. aureus ATCC 13709. As to the kind of experiment: Antibacterial susceptibility (MIC) in the presence of serum. Format: cell-based. As for the experimental part:
as §1
Susceptibility testing experiments were also carried out in the presence of serum.
These experiments were carried out similar to the susceptibility testing with the following modifications. 75 μL of compounds diluted in CAMHB was mixed with 75 μL of bacteria diluted in 100% serum from any given source (commercial pooled mouse serum (MS) and human serum (HS), Equitech-Bio Inc.) or diluted in 8% purified human serum albumin (HSA) (Calbiochem). The final concentration of animal serum in the assay was 50% and the final concentration of purified human serum albumin in the assay was 4%; the concentrations of all other components were identical to those described for susceptibility testing.

Data set [6] concerns E. coli LBB925 (tolC mutant). Put plainly: Antibacterial susceptibility (MIC), NCCLS broth microdilution. Format: cell-based. To be noted: tolC mutant.
Data set [7] in a line: Regeneration of drug from bone powder-bound prodrug. Format: in vitro ADME. The following applies: for % Conversion of bone-bound prodrug to parent drug: 24 h incubation, 37° C.; for Impact of the medium on the rate of regeneration of parent drug (in words): serum compared to PBS. As for the experimental part: Amounts of parent drug “regenerated” from the phosphonated prodrug were measured as follows. Washed bone powder-bound prodrugs from the above experiment were resuspended in 400 μL PBS+2% DMSO or in 400 μL 50% (v/v in PBS+2% DMSO) human or rat serum. The suspension was incubated overnight at 37° C., centrifuged at 13,000 rpm for 2 min and the supernatant was recovered. The amount of regenerated parent drug in the supernatant was determined by measurements using the microbiological assay that was previously described for the prodrugs themselves. The amount of prodrug was deduced from standard curves of known amounts of parent drug that were used as reference for each experiment.

These results are taken from patent US8404664B2, “Phosphonated Rifamycins and uses thereof for the prevention and treatment of bone and joint infections” (Targanta Therapeutics, Inc., priority 2005, dated 2013).

≈ marks a conversion by molar mass, not a printed value.

Consider `CCN(CC)CC.CCN(CC)CC.CO[C@H]1/C=C/O[C@@]2(C)Oc3c(C)c(O)c4c(=O)c(c5oc6cc(N7CCN(CC(C)C)CC7)cc(O)c6nc-5c4c3C2=O)NC(=O)/C(C)=C\C=C\[C@H](C)[C@H](OC(=O)CCC(=O)NCCC(=O)NC(P(=O)(O)O)P(=O)(O)O)[C@@H](C)[C@@H](O)[C@@H](C)[C@H](OC(C)=O)[C@@H]1C` [Compound 78, 21-O-(3-(2-((bisphosphonomethyl)carbamoyl)ethylcarbamoyl)propanoyl)-1′,4-Didehydro-1-deoxy-1,4-dihydro-3′-hydroxy-5′-[4-(2-methylpropyl)-1-piperazinyl]-1-oxorifamycin VIII], for which, in the data set on S. aureus ATCC 13709 [1], the “Minimum inhibitory concentration, S. aureus ATCC 13709” value came out at 8 µg/mL and the “Antibacterial activity (in words, summary of Table 1)” value (from here on “Antibacterial activity”) was “near complete loss of activity”. Besides, the “Minimum inhibitory concentration, S. aureus ATCC 43300” value in data set [2] came to 8 µg/mL. Besides, the “Minimum inhibitory concentration, S. aureus BK85” value in data set [3] was found to be 16 µg/mL. Besides, the “Minimum inhibitory concentration, S. aureus RN4220” value in the data set on S. aureus RN4220 stood at 16 µg/mL. Also, in data set [4], the “Activity against the Rifampicin resistant variant of S. aureus ATCC13709 (in words)” value (“Activity … (in words)” for short) is given as “complete lack of activity” and the “Minimum inhibitory concentration, S. aureus ATCC 13709 variant” value is >128 µg/mL. Also, in the data set with S. aureus ATCC 13709 [5], the “Minimum inhibitory concentration, S. aureus ATCC 13709 + 50% Human Serum” value was >128 µg/mL; the “Minimum inhibitory concentration, S. aureus ATCC 13709 + 50% Mouse Serum” value was >128 µg/mL; the “Minimum inhibitory concentration, S. aureus ATCC 13709 + 50% Rat Serum” value was >128 µg/mL. In addition, the “Minimum inhibitory concentration, E. coli LBB925” value in data set [6] was >128 µg/mL. Besides, in data set [7], the “Regeneration of parent drug once bound to bone (in words)” value (shortened to “Regeneration of parent drug once bound”) was “not able to regenerate” and the “Impact of the medium on the rate of regeneration of parent drug (in words)” value (“Impact of the medium” for short) was “significant acceleration”. Also, the “% Conversion of bone-bound prodrug to parent drug” value (from here on “% Conversion of bone-bound prodrug”) in data set [7] (50% Rat Serum) stood at 0.01%. Besides, the “% Conversion of bone-bound prodrug” value in data set [7] (PBS) is given as “<lod”.

Consider `CCN(CC)CC.CCN(CC)CC.CO[C@H]1/C=C/O[C@@]2(C)Oc3c(C)c(O)c4c(c3C2=O)C2=NC3(CCN(CC(C)C)CC3)NC2=C(NC(=O)/C(C)=C\C=C\[C@H](C)[C@H](OC(=O)CCC(=O)NC(P(=O)(O)O)P(=O)(O)O)[C@@H](C)[C@@H](O)[C@@H](C)[C@H](OC(C)=O)[C@@H]1C)C4=O` [Compound 39, 21-O-(3-((bisphosphonomethyl)carbamoyl)propanoyl)-1′,4-didehydro-1-deoxy-1,4-dihydro-5′-(2-methylpropyl)-1-oxorifamycin XIV], for which, in the data set with S. aureus ATCC 13709 [1], the “Minimum inhibitory concentration, S. aureus ATCC 13709” value was >128 µg/mL and the “Antibacterial activity” value is recorded as “near complete loss of activity”. Moreover, in data set [2], the “Minimum inhibitory concentration, S. aureus ATCC 43300” value was >128 µg/mL. The “Minimum inhibitory concentration, S. aureus BK85” value in data set [3] is >128 µg/mL. Further, the “Minimum inhibitory concentration, S. aureus RN4220” value in the data set with S. aureus RN4220 was >128 µg/mL. In data set [4], the “Activity … (in words)” value is “complete lack of activity” and the “Minimum inhibitory concentration, S. aureus ATCC 13709 variant” value is >128 µg/mL. Moreover, in the data set with S. aureus ATCC 13709 [5], the “Impact of serum on the MICs (in words)” value was “no impact”; the “Minimum inhibitory concentration, S. aureus ATCC 13709 + 50% Human Serum” value was >128 µg/mL; the “Minimum inhibitory concentration, S. aureus ATCC 13709 + 50% Mouse Serum” value is >128 µg/mL; the “Minimum inhibitory concentration, S. aureus ATCC 13709 + 50% Rat Serum” value was 64 µg/mL. Also, the “Minimum inhibitory concentration, E. coli LBB925” value in data set [6] came out at 128 µg/mL. The “Regeneration of parent drug once bound” value in data set [7] is listed as “not able to regenerate”.

`CCN(CC)CC.CCN(CC)CC.CO[C@H]1/C=C/O[C@@]2(C)Oc3c(C)c(O)c4c(c3C2=O)C2=NC3(CCN(CC(C)C)CC3)NC2=C(NC(=O)/C(C)=C\C=C\[C@H](C)[C@H](OC(=O)CCC(=O)NCCCC(=O)NC(P(=O)(O)O)P(=O)(O)O)[C@@H](C)[C@@H](O)[C@@H](C)[C@H](OC(C)=O)[C@@H]1C)C4=O` [Compound 45, 21-O-(3-(3-((bisphosphonomethyl)carbamoyl)propylcarbamoyl)propanoyl)-1′,4-didehydro-1-deoxy-1,4-dihydro-5′-(2-methylpropyl)-1-oxorifamycin XIV]: in the data set with S. aureus ATCC 13709 [1], the “Minimum inhibitory concentration, S. aureus ATCC 13709” value was found to be 32 µg/mL and the “Antibacterial activity” value is “near complete loss of activity”. In data set [2], the “Minimum inhibitory concentration, S. aureus ATCC 43300” value worked out at 64 µg/mL. Besides, the “Minimum inhibitory concentration, S. aureus BK85” value in data set [3] turned out to be 64 µg/mL. Moreover, the “Minimum inhibitory concentration, S. aureus RN4220” value with S. aureus RN4220 is 64 µg/mL. In data set [4], the “Activity … (in words)” value is “complete lack of activity” and the “Minimum inhibitory concentration, S. aureus ATCC 13709 variant” value is >128 µg/mL. Further, in the data set on S. aureus ATCC 13709 [5], the “Impact of serum on the MICs (in words)” value is given as “no impact”; the “Minimum inhibitory concentration, S. aureus ATCC 13709 + 50% Human Serum” value is 64 µg/mL; the “Minimum inhibitory concentration, S. aureus ATCC 13709 + 50% Mouse Serum” value is 128 µg/mL. In addition, the “Minimum inhibitory concentration, E. coli LBB925” value in data set [6] is >128 µg/mL. Further, in data set [7], the “Regeneration of parent drug once bound” value was “not able to regenerate” and the “Impact of the medium” value is listed as “not significantly impacted”. For the same compound, the “% Conversion of bone-bound prodrug” value in data set [7] (50% Rat Serum) turned out to be 0.002%. In addition, the “% Conversion of bone-bound prodrug” value in data set [7] (PBS) was “<lod”.

Regarding `CO[C@H]1/C=C/O[C@@]2(C)Oc3c(C)c(O)c4c(=O)c(c5oc6cc(N7CCN(CC(C)C)CC7)cc(O)c6nc-5c4c3C2=O)NC(=O)/C(C)=C\C=C\[C@H](C)[C@H](OC(=O)COC(=O)CCC(=O)NC(P(=O)(O)O)P(=O)(O)O)[C@@H](C)[C@@H](O)[C@@H](C)[C@H](OC(C)=O)[C@@H]1C` [Compound 84, 21-O-(2-((3-(bisphosphonomethyl)carbamoyl)propanoyloxy)acetyl)-1′,4-Didehydro-1-deoxy-1,4-dihydro-3′-hydroxy-5′-[4-(2-methylpropyl)-1-piperazinyl]-1-oxorifamycin VIII], the “Minimum inhibitory concentration, S. aureus ATCC 13709” value in the data set on S. aureus ATCC 13709 [1] was found to be 1 µg/mL (≈ 0.786 µM). For the same compound, in data set [2], the “Minimum inhibitory concentration, S. aureus ATCC 43300” value is 1 µg/mL (≈ 0.786 µM). The “Minimum inhibitory concentration, S. aureus BK85” value in data set [3] worked out at 1 µg/mL (≈ 0.786 µM). Besides, the “Minimum inhibitory concentration, S. aureus RN4220” value in the data set on S. aureus RN4220 amounted to 1 µg/mL (≈ 0.786 µM). Also, in data set [4], the “Activity … (in words)” value is listed as “complete lack of activity” and the “Minimum inhibitory concentration, S. aureus ATCC 13709 variant” value is >128 µg/mL. In addition, in the data set with S. aureus ATCC 13709 [5], the “Minimum inhibitory concentration, S. aureus ATCC 13709 + 50% Human Serum” value was 16 µg/mL; the “Minimum inhibitory concentration, S. aureus ATCC 13709 + 50% Mouse Serum” value came to 16 µg/mL; the “Minimum inhibitory concentration, S. aureus ATCC 13709 + 50% Rat Serum” value was 1 µg/mL. Also, the “Minimum inhibitory concentration, E. coli LBB925” value in data set [6] is >128 µg/mL. Further, in data set [7], the “Regeneration of parent drug once bound” value is “not able to regenerate” and the “Impact of the medium” value is “significant acceleration”. In addition, in data set [7] (50% Rat Serum), the “% Conversion of bone-bound prodrug” value came out at 0.12%. The “% Conversion of bone-bound prodrug” value in data set [7] (PBS) is given as “<lod”.
